Results on 50 compounds are retold here after US12064426B2, “Selective inhibitors of ROCK1 and ROCK2 protein kinases and uses thereof” (GENOSCO Inc., priority 2021, dated 2024).

The target in assay [1] is T1, Recombinant ROCK2 (amino acids 5-554) (Homo sapiens, UniProt O75116).
T1 construct: ROCK2 (amino acids 5-554); by word order, ROCK2 from SignalChem
As to the kind of experiment: ROCK inhibition assay, LANCE Ultra TR-FRET kinase assay (ROCK2). To be noted: 4 μM ATP, 50 nM ULight-CREBtide substrate. It is filed as biochemical. An outline of the steps:
(§1)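 Reaction buffer 50 mM HEPES pH 7.5, 10 mM MgCl2, 1 mM EGTA, 2 mM DTT; kinase, ULight-CREBtide (50 nM) and ATP (ROCK1 1 μM, ROCK2 4 μM) react 1 h at room temperature. Phospho-Ser133 detected by europium antibody after 10 mM EDTA stop, TR-FRET ex 320 nm; IC50 calculated.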
(Time-resolved FRET reads energy transfer from a long-lived donor to a nearby acceptor.)

Assay [2] concerns the target T2, Recombinant ROCK1 (amino acids 1-477) (Homo sapiens, UniProt Q13464).
T2 construct: Recombinant ROCK1 (amino acids 1-477); by word order, ROCK1 from Carna Biosciences
As to the kind of experiment: ROCK inhibition assay, LANCE Ultra TR-FRET kinase assay (ROCK1). It counts as biochemical. To be noted: 1 μM ATP, 50 nM ULight-CREBtide substrate. Put shortly: as §1

T1 sequence (O75116 5-554): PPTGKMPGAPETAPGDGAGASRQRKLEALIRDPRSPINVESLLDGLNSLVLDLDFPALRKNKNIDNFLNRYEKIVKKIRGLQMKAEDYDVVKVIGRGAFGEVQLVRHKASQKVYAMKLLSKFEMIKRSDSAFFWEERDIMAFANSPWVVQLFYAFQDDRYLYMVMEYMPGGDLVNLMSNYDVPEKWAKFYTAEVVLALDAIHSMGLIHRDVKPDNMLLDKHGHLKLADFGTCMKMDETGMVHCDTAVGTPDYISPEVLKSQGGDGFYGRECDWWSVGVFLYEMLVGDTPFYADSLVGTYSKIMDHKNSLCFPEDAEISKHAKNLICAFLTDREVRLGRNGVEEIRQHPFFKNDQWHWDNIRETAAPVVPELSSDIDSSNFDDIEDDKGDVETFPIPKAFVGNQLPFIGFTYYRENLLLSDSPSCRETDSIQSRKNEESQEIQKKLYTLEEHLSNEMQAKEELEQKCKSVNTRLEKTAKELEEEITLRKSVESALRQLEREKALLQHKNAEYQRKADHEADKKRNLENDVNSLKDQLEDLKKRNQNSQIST
T2 sequence (Q13464 1-477): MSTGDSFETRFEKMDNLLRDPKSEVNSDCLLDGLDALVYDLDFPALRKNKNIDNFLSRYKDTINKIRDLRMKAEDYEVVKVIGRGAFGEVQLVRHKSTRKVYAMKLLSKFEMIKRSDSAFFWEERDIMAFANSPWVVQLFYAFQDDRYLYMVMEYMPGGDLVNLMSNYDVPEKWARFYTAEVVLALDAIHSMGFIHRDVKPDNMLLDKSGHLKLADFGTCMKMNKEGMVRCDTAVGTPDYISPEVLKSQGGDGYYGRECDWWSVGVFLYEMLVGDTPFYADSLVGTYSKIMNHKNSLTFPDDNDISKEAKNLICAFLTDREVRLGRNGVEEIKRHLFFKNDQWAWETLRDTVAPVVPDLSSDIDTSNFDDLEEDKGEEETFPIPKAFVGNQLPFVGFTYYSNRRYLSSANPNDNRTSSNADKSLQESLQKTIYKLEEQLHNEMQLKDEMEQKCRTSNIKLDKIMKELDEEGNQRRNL

As to `O=C(NCCN1CCOCC1)c1cccc(Cn2ccc3cc(N4CCOCC4)ccc3c2=O)c1` [Compound 216], the results for the concentration for half-maximal inhibition (IC50) in assay [1] and in assay [2] were 100 to 500 nM and 101 to 500 nM, respectively.

In the case of `CNC(=O)c1cccc(Cn2cc(CCO)c3cc(-c4ccnc(N)c4)ccc3c2=O)c1` [Compound 558], the IC50 – broadly, the concentration at which inhibition is half-maximal – in assay [1] was 10 to 100 nM; in assay [2] it was under 10 nM.

Take `Cc1nocc1-c1ccc2c(=O)n(C(CO)c3cccc(Cl)c3)cnc2c1` (stereo not shown) [Compound 488]: the concentration for half-maximal inhibition (IC50) lay in the range of 10 to 100 nM in assay [1] and 101 to 500 nM in assay [2].

On to `O=C(NC1CCN(C2COC2)CC1)c1cccc(Cn2ccc3cc(-c4c[nH]nc4C(F)(F)F)ccc3c2=O)c1` [Compound 48], for which the IC50 in assay [1] was under 10 nM; in assay [2], 101 to 500 nM.

As for `[2H]C([2H])([2H])NC(=O)c1cccc(Cn2cnc3cc(-c4cn[nH]c4Br)ccc3c2=O)c1` [Compound 511], the concentration for half-maximal inhibition (IC50) in assay [1] was under 10 nM; in assay [2], 11 to 100 nM.

For `Cn1ccc(NC(=O)c2cc(F)cc(Cn3ccc4cc(-c5ccnn5C)ccc4c3=O)c2)n1` [Compound 179], the 50% inhibitory concentration (IC50) in assay [1] was under 10 nM; in assay [2] it was 11 to 100 nM.

`[2H]C([2H])([2H])NC(=O)c1cccc(Cn2ccc3cc(-c4ccnn4C)ccc3c2=O)c1` [Compound 321]: the IC50 in assay [1] was 10 to 100 nM; in assay [2], 101 to 500 nM.

`CNC(=O)c1cc(F)cc(C(C)n2ccc3cc(-c4cn[nH]c4Cl)ccc3c2=O)c1` (stereo not shown) [Compound 294]: the IC50 is under 10 nM in assay [1] and 11 to 100 nM in assay [2].

Turning to `CNC(=O)c1cncc(Cn2ccc3cc(-c4conc4C)ccc3c2=O)c1` [Compound 312], the figures for the half-inhibitory concentration (IC50) in assay [1] and in assay [2] were 10 to 100 nM and 101 to 500 nM, respectively.

For `Cc1nocc1-c1ccc2c(=O)n(Cc3cccc(C(=O)Nc4ccon4)c3)ccc2c1` [Compound 90], the results for the IC50 in assay [1] and in assay [2] were 100 to 500 nM and over 501 nM, respectively.

Take `Cc1nocc1-c1ccc2c(=O)n(Cc3cccc(C(=O)NCC4CC4)c3)ccc2c1` [Compound 68]: the IC50 in assay [1] is 10 to 100 nM; in assay [2] it was 11 to 100 nM.

Take `Cn1nccc1-c1ccc2c(=O)n(Cc3cc(F)cc(C(=O)NCc4ccc(F)nc4)c3)ccc2c1` [Compound 174]: the values for the IC50 in assay [1] and in assay [2] were under 10 nM and 11 to 100 nM, respectively.

For the compound `CNC(=O)c1cccc(Cn2cnc3cc(-c4cn[nH]c4C(F)(F)F)ccc3c2=O)c1` [Compound 367], the results for the IC50 in assay [1] and in assay [2] were under 10 nM and 11 to 100 nM, respectively.

`Cn1nccc1-c1ccc2c(=O)n(Cc3cccc(C(=O)N[C@H]4CC[C@@H](O)CC4)c3)cnc2c1` [Compound 429]: the IC50 in assay [1] is under 10 nM; in assay [2], 11 to 100 nM.

Consider `[2H]C([2H])([2H])NC(=O)c1cccc([C@@H](C)n2cnc3cc(-c4cn[nH]c4Cl)ccc3c2=O)c1` [Compound 467], for which the IC50 in assay [1] is under 10 nM; in assay [2], 11 to 100 nM.

In the case of `O=C(NCCc1ccccn1)c1cccc(Cn2ccc3cc(-c4cn[nH]c4)ccc3c2=O)c1` [Compound 27, 3-((1-oxo-6-(1H-pyrazol-4-yl)isoquinolin-2(1H)-yl)methyl)-N-(2-(pyridin-2-yl)ethyl)benzamide], the IC50 was under 10 nM in assay [1] and 11 to 100 nM in assay [2].

Turning to `COc1cccc(Cn2ccc3cc(-c4conc4C)ccc3c2=O)c1` [Compound 9], the concentration for half-maximal inhibition (IC50) in assay [1] is under 10 nM; in assay [2] it was 11 to 100 nM.

`O=C(NCc1ccncc1)c1cccc(Cn2cnc3cc(-c4cn[nH]c4C(F)(F)F)ccc3c2=O)c1` [Compound 372]: the half-inhibitory concentration (IC50) in assay [1] and in assay [2] was under 10 nM throughout.

As to `CNC(=O)c1cccc([C@@H](C)n2cnc3cc(-c4ccnc(N)c4)ccc3c2=O)c1` [Compound 481], the IC50 lay within 10 to 100 nM in assay [1] and 101 to 500 nM in assay [2].

Consider `CC(O)c1cn(Cc2cccc(C(=O)NC3COC3)c2)c(=O)c2ccc(-c3c[nH]nc3C(F)(F)F)cc12` (stereo not shown) [Compound 534], for which the half-maximal inhibitory concentration (IC50) in assay [1] is under 10 nM; in assay [2], 11 to 100 nM.

For the compound `CC(c1cccc(O)c1)n1ccc2cc(-c3c[nH]nc3C(F)(F)F)ccc2c1=O` (stereo not shown) [Compound 8], the half-maximal inhibitory concentration (IC50) is 10 to 100 nM in assay [1] and 101 to 500 nM in assay [2].

Turning to `CNC(=O)c1cc(F)cc(C(C)n2ccc3cc(-c4conc4C)ccc3c2=O)c1` (stereo not shown) [Compound 316], the values for the half-maximal inhibitory concentration (IC50) in assay [1] and in assay [2] were under 10 nM and 11 to 100 nM, respectively.

For `CNC(=O)c1cc(F)cc(C(C)n2ccc3cc(-c4cn[nH]c4F)ccc3c2=O)c1` (stereo not shown) [Compound 298], the results for the IC50 in assay [1] and in assay [2] were under 10 nM and 11 to 100 nM, respectively.

With `[2H]C([2H])([2H])NC(=O)c1cccc([C@@H](C)n2cnc3cc(-c4conc4C)ccc3c2=O)c1` [Compound 471], the IC50 in assay [1] was under 10 nM; in assay [2], 11 to 100 nM.

For `CN1CCc2cc(NC(=O)c3cccc(Cn4ccc5cc(-c6ccnn6C)ccc5c4=O)c3)ccc2C1` [Compound 124], the IC50 in assay [1] and in assay [2] was under 10 nM in each case.

For `Nc1cc(-c2ccc3c(=O)n(Cc4cc(F)cc(C(=O)Nc5ccon5)c4)ccc3c2)ccn1` [Compound 205], the half-maximal inhibitory concentration (IC50) in assay [1] is 100 to 500 nM; in assay [2] it was over 501 nM.

For `Cc1nocc1-c1ccc2c(=O)n(Cc3cccc(C(=O)NC4CCN(CC(F)(F)F)CC4)c3)ccc2c1` [Compound 87], the half-inhibitory concentration (IC50) is under 10 nM in assay [1] and 11 to 100 nM in assay [2].

As for `NCC(c1cccc(C(N)=O)c1)n1cnc2cc(-c3cn[nH]c3C(F)(F)F)ccc2c1=O` (stereo not shown) [Compound 507], the concentration for half-maximal inhibition (IC50) is 100 to 500 nM in assay [1] and over 501 nM in assay [2].

Turning to `CC(C)C(=O)Nc1cccc(Cn2ccc3cc(-c4c[nH]nc4C(F)(F)F)ccc3c2=O)c1` [Compound 338], the IC50 fell in the range of 10 to 100 nM in assay [1] and 11 to 100 nM in assay [2].

With `CNC(=O)c1cccc(Cn2cc(CCN(C)C)c3cc(-c4cn[nH]c4Cl)ccc3c2=O)c1` [Compound 564], the IC50 in assay [1] was under 10 nM; in assay [2] it was 11 to 100 nM.

With `Cc1nocc1-c1ccc2c(=O)n(Cc3cccc(C(=O)NCc4ccc(F)nc4)c3)ccc2c1` [Compound 76], the half-inhibitory concentration (IC50) in assay [1] was under 10 nM; in assay [2] it was 11 to 100 nM.

For `O=C(NCC1COC1)c1cc(F)cc(Cn2ccc3cc(-c4c[nH]nc4C(F)(F)F)ncc3c2=O)c1` [Compound 258], the figures for the IC50 in assay [1] and in assay [2] were under 10 nM and 11 to 100 nM, respectively.

Consider `Nc1cc(-c2ccc3c(=O)n(Cc4cccc(C(=O)NC5COC5)c4)ccc3c2)ccn1` [Compound 195], for which the half-inhibitory concentration (IC50) in assay [1] lay in the range of 10 to 100 nM; in assay [2], 101 to 500 nM.

With `N#Cc1cccc(C(CN)n2cnc3cc(-c4ccnc(F)c4)ccc3c2=O)c1` (stereo not shown) [Compound 502, 3-(2-amino-1-(7-(2-fluoropyridin-4-yl)-4-oxoquinazolin-3(4H)-yl)ethyl)benzonitrile], the IC50 in assay [1] was 100 to 500 nM; in assay [2], over 501 nM.

Turning to `Nc1cc(-c2ccc3c(=O)n(Cc4cccc(C(=O)NCC5CCOCC5)c4)cnc3c2)ccn1` [Compound 438], the 50% inhibitory concentration (IC50) in assay [1] fell in the range of 10 to 100 nM; in assay [2] it was 11 to 100 nM.

As to `CN1CCC(NC(=O)c2cc(F)cc(Cn3ccc4cc(-c5c[nH]nc5Cl)ncc4c3=O)c2)CC1` [Compound 261], the IC50 in assay [1] and in assay [2] was under 10 nM in each case.

In the case of `[2H]C([2H])([2H])NC(=O)c1cccc(Cn2ccc3cc(-c4cn[nH]c4C(F)(F)F)ccc3c2=O)c1` [Compound 278], the half-maximal inhibitory concentration (IC50) was under 10 nM in assay [1] and 11 to 100 nM in assay [2].

Regarding `CNC(=O)c1cccc(Cn2ccc3cc(-c4conc4C)cnc3c2=O)c1` [Compound 243], the results for the IC50 in assay [1] and in assay [2] were 100 to 500 nM and over 501 nM, respectively.

Take `CNC(=O)c1cccc(C(C)n2cc(CCN(C)C)c3cc(-c4cn[nH]c4Cl)ccc3c2=O)c1` (stereo not shown) [Compound 565]: the half-inhibitory concentration (IC50) in assay [1] is under 10 nM; in assay [2], 11 to 100 nM.

Consider `CC(=O)Nc1cc(F)cc(Cn2ccc3cc(-c4ccnc(N)c4)ccc3c2=O)c1` [Compound 353], for which the half-inhibitory concentration (IC50) is 100 to 500 nM in assay [1] and over 501 nM in assay [2].

In the case of `Cc1nocc1-c1ccc2c(=O)n(Cc3cc(F)cc(C(=O)Nc4nc5c(s4)CCNC5)c3)ccc2c1` [Compound 157], the half-inhibitory concentration (IC50) was under 10 nM in assay [1] and 11 to 100 nM in assay [2].

Consider `CN1CCN(CCNC(=O)c2cc(F)cc(Cn3ccc4cc(-c5ccnn5C)ncc4c3=O)c2)CC1` [Compound 268], for which the IC50 was under 10 nM in assay [1] and 11 to 100 nM in assay [2].

Turning to `O=C(NCC1CCNCC1)c1cccc(Cn2ccc3cc(N4CCOCC4)ccc3c2=O)c1` [Compound 217], the half-maximal inhibitory concentration (IC50) in assay [1] lay in the range of 10 to 100 nM; in assay [2] it was 101 to 500 nM.

With `Cc1n[nH]cc1-c1ccc2c(=O)n(Cc3cccc(C(=O)NCc4cccc(NS(C)(=O)=O)c4)c3)ccc2c1` [Compound 33], the results for the IC50 in assay [1] and in assay [2] were 100 to 500 nM and over 501 nM, respectively.

For the compound `CC(c1cccc(O)c1)n1ccc2cc(-c3c[nH]nc3C(F)F)ccc2c1=O` (stereo not shown) [Compound 15], the figures for the IC50 in assay [1] and in assay [2] were under 10 nM and 11 to 100 nM, respectively.

Take `Cc1n[nH]cc1-c1ccc2c(=O)n(Cc3cccc(O)c3)ccc2c1` [Compound 5]: the IC50 lay in the range of 10 to 100 nM in assay [1] and 101 to 500 nM in assay [2].

Turning to `CN1CCC(CNC(=O)c2cc(F)cc(Cn3ccc4cc(-c5ccnn5C)ccc4c3=O)c2)CC1` [Compound 172], the figures for the IC50 in assay [1] and in assay [2] were under 10 nM and 11 to 100 nM, respectively.

Regarding `O=C1c2ccc(-c3cn[nH]c3Cl)cc2NCN1[C@H](CO)c1cccc(Cl)c1` [Compound 525], the values for the IC50 in assay [1] and in assay [2] were 100 to 500 nM and over 501 nM, respectively.

Take `O=C(NCC1CCOCC1)c1cc(F)cc(Cn2ccc3cc(-c4c[nH]nc4C(F)F)ncc3c2=O)c1` [Compound 276]: the IC50 was under 10 nM in assay [1] and 11 to 100 nM in assay [2].

As to `Cn1nccc1-c1ccc2c(=O)n(Cc3cc(F)cc(C(=O)NCC4CCNCC4)c3)ccc2c1` [Compound 173], the values for the concentration for half-maximal inhibition (IC50) in assay [1] and in assay [2] were under 10 nM and 11 to 100 nM, respectively.
